Patent publication US5723496A, “Method for prevention and treatment of harmful effects of intracellular acidosis” (priority 1995, dated 1998)
Entries after “also recorded” stand apart in the source; their conditions may differ. Structures can show the parent of a compound that is named as a salt. Where two headings read alike, the source gives them in different places.

Key:
[1] = parameters: species or system Adult Swiss mice; details: mouse, in vivo
Procedure: (§1) Adult Swiss mice (BK-1 male 20 g) purchased from Bantin & Kingman, Fremont, Calif., were used. Each batch consisted of 15 mice. Within each batch, five mice were selected randomly to be in the GES, taurine, or control group. A taurine group was included to serve as additional control.
Arterial blood gas sample was collected by puncture of the lower portion of the descending aorta under pentobarbital anesthesia. Analysis was performed on a Corning 168 Blood Gas Analyzer.

[2] = in vivo, sulfate, cited from earlier work
CA1 neurons = test: neuronal density in CA1 region, gerbil forebrain ischemia model; type: in vivo
Procedure: The gerbil forebrain ischemia model of Kirino (REFERENCE, please) was employed as follows.
Animals were divided into 4 groups. Two groups of 5 animals each served as control.
First control group was administered daily for fourteen days 0.25 ml of saline. No ischemia was induced.
Second control group was administered 0.25 ml of 625 mg/kg of GES daily for fourteen days. No ischemia was induced.
Third group of ten animals was control ischemia group. This group was administered with 0.25 ml of saline daily for 14 days. Then, the ischemia was induced.
Fourth group of 16 animals was administered 0.25 ml of 625 mg/kg of GES for 14 days, followed by induced ischemia.
Animals were anesthetized with 1% halothane, 70% nitrous oxide, and 29% oxygen. The subscalp and rectal temperature were monitored and kept constant at 37° C. using a controlled heating system starting 30 minutes prior to one hour after induction of ischemia. Ischemia in experimental groups (saline and GES ischemia groups) was induced by occlusion of the carotid arteries bilaterally for 5 minutes using small aneurysm clips. Animals in the two control groups (saline and GES controls) received sham surgery but no ischemia was induced.
Seven days after induced ischemia and recirculation, animals were perfused transcardially with 50 cc of normal saline followed by 500 cc of 5% paraformaldehyde in 0.1M phosphate buffer (pH=7.3), at 100 cm H2 O, under deep pentobarbital anesthesia. Brains were removed and fixed in the same buffered paraformaldehyde solution for 14 days. Sections (6 μm thick) containing the dorsal hippocampus at the level 1.4-1.7 mm posterior to the bregma were prepared on a cryostat from paraffin embedded brain. Sections were stained with hematoxylin and eosin and examined in a double blinded fashion. The number of viable neurons within the CA1 region was counted using an Olympus BH-2 microscope at ×400. The results represents the average of the counts.

[3] = test system: mouse brain intracellular acidosis; test: in vivo brain pH before and after 2 min anoxia (Example 4); parameters: species or system mice; details: for brain pH after anoxia / brain pH before anoxia: mice, 3.75 mmole/kg/day i.p., 14 days; for brain pH after anoxia: 2 min anoxia
Procedure: Using the same experimental procedure as in Example 3, in vivo pH buffering property of guanidinoethanesulfonic acid against the in vivo intracellular acidosis and pH depression caused by anoxia was evaluated.
Aqueous solution of guanidinoethanesulfonic acid (0.3M) was administered daily intraperitoneally to five mice at a dose of 3.75 mmole/kg/day for a period of 14 days. The same number of control mice (5) received intraperitoneal administration of physiological saline solution at a dose of 0.25 ml/animal/day for the same period (14 days).
After the 14 days of administration period of GES or saline, animals were placed in a chamber filled with pure 100% nitrogen for 2 minutes to produce the anoxia state. The pH of the brain was measured in vivo before and after the anoxia by the technique of ^31 P spectroscopy using Omega-7 Tesla Magnetic Resonance Spectrophotometer.

[4] = test system: post-ischemia hyperactivity; test: motor activity (distance traveled) before and after ischemia; type: in vivo, gerbil
Procedure: Ischemia was induced as described above. Motor activity was analyzed using a PC driven automatic behavior analyzer as follows. Animals were placed individually in automated motor activity chambers (Omnitech Digiscan, Columbus, Ohio). A horizontally aligned array of […] infrared beams on each side of the chamber (39×39×39 cm high), located 2.5 cm above the floor and 2.5 cm apart, detected animals movements. […] Animals were studied prior to and 1, 2, 3, 7 day after induction of ischemia. Motor activity was monitored for 6 hours between 11:00 pm and 5:00 am.

[5] = parameters: species or system gerbil; details: in vivo
Procedure: Adult male gerbils (ca. 70 g) were divided into three groups of 5 gerbils each. Control group received saline and experimental group received GES. Taurine group served as an additional control. […] The saline group received 0.25 ml of saline injections.
After two weeks, animals were sacrificed by exsanguination under pentobarbital anesthesia. Brains were removed and fixed in liquid nitrogen. The frozen brains were pulverized in a liquid nitrogen cooled mortar and pestle, and mixed with 4 volumes of 0.5N powdered frozen perchloric acid. The powder mixture was centrifuged in liquid nitrogen cooled centrifuge tubes at 16,000 rpm at -4° C. for 30 minutes. The supernatant was removed and titrated to a pH of 9.0-9.5 by the addition of potassium bicarbonate. The solution was stored in an ice bath for 15 minutes and the potassium perchlorate precipitate was removed by centrifugation at 16,000 rpm at -4° C.
Aliquots (0.5 ml) of the extracts obtained above were placed on a dual bed ion exchange column containing 6×0.5 cm Dowex AG1 anion exchange resin (chloride form) layered over 6×0.5 cm Dowex AG50 cation exchange resin (hydrogen form). Water (3 ml) then added to the column. The eluent, guanidinoethyl sulfonate, was free from other naturally occurring guanidino compounds, such as arginine. […] After 18 min., absorbance was read at 545 nm using a Gilford Spectrophotometer to determine brain GES level.

[6] = observation of behavior and respiratory pattern; type: in vivo, Adult Swiss mice; details: two weeks i.p.
Source text: as §1

[7] = listed as guanidinoethane sulfate

SMILES: N=C(N)NCCS(=O)(=O)O [GES, guanidinoethane sulfate]
- arterial blood gas parameters including pH (in words) [1]: remained essentially unchanged
- arterial pCO2 [1]: 41.0 ± 5.49 mmHg
- arterial pH [1]: 7.29 ± 0.03
- arterial pO2 [1]: 98.0 ± 5.8 mmHg
- blood-brain barrier crossing (in words) ([2]; listed as Guanidinoethanesulfonic acid): ability to cross the blood-brain barrier
- blood-brain barrier crossing (in words) [2]: crosses the blood brain barrier in the uncharged form
- neuroprotection of CA1 neurons (in words) (CA1 neurons; 7 days after 5 min bilateral carotid occlusion, sulfate): significant nueroprotection on CA1 neurons; also recorded: Significantly higher neuronal density
- neuronal density in CA1 region, no ischemia (CA1 neurons; GES control group (n=5), sham surgery): 249 ± 9.4 /mm
- CA1 neuronal density, ischemia (CA1 neurons; GES ischemia group): 61.1±55.11 /mm
- neuronal density in CA1 region, ischemia (CA1 neurons; GES ischemia group (n=16), 5 min occlusion, 7 days, p<0.05): 61.1 ± 55.1 /mm
- protective activity by CA1 neuronal density vs saline ischemia (CA1 neurons; in vivo): four times higher
- brain pH after anoxia [3, 7]: 7.05±0.05
- brain pH before anoxia [3, 7]: 7.16±0.04
- brain pH after anoxia ([3]; sulfate): 7.05
- brain pH before anoxia ([3]; sulfate): 7.16
- prevention of decrease in brain pH (in words) ([3]; p<0.05, listed as guanidinoethane sulfate): effectively protects the brain cell from the acidosis damage
- prevention of decrease in brain pH (in words) ([3]; p<0.05, sulfate): significantly (p<0.05) prevented the decrease in the cellular pH
- travelling distance before ischemia ([4]; GES-treated gerbils): approximately 150 m/hours
- travelling distance of ischemia control vs GES ischemia group ([4]; first day after ischemia): more than 2.5 times
- post-ischemia hyperactivity (in words) ([4]; in vivo, sulfate): did not experienced such hyperactivity periods; also recorded: significantly suppressed; also recorded: able to suppress post-ischemic hyperactivity to close to normal levels
- brain GES level relative to saline group [5]: about 7 times
- observable adverse effects in behavior or respiratory pattern [6]: did not show any observable adverse effects
